From the supplement of paper PMC10627819

Experiments:
B. subtilis 168 [1] = assay: fitness (endpoint OD595 vs no drug) (fraction); higher = more growth
How it was run: (§1)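 At 37 °C, bacteria in TSB, LB Lennox or CY were grown in 384-well plates from a starting OD595 of 0.01. OD595 was measured every 30 min for 14 h, with the first reading used as background. Fitness is the optical density at the switch to stationary phase as a fraction of the robust mean of no-drug control wells, capped at 1.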

S. aureus DSM 20231 [2] = assay: as above
How it was run: as §1

S. aureus Newman [3] = assay: as above
How it was run: as §1

S. pneumoniae D39V [4] = assay: as above
How it was run: as §1

B. subtilis 168 [5] = assay: Bliss interaction score (quartile over a dose matrix) (fitness difference); higher = more antagonism (negative = synergy)
How it was run: (§2)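 Quartiles summarise the Bliss score over technical, biological and donor/recipient replicates, where the score is observed minus expected fitness under a product model. Expected fitness uses single-drug values inferred from combination data. Fitness is OD595 at entry into stationary phase over the plate's robust no-drug mean, capped at 1.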

S. aureus DSM 20231 [6] = assay: as above
How it was run: as §2

S. aureus Newman [7] = assay: as above
How it was run: as §2

S. pneumoniae D39V [8] = assay: as above
How it was run: as §2
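Wherever Bliss interaction score (quartile over a dose matrix) is given: first quartile when negative (synergy) and third quartile when positive (antagonism).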

CCC[C@@H]1C[C@@H](C(=O)N[C@@H]([C@H]2O[C@H](SC)[C@H](O)[C@@H](O)[C@H]2O)[C@H](C)Cl)N(C)C1 [Clindamycin] + COc1ccc(C[C@H](N)C(=O)N[C@H]2[C@@H](O)[C@H](n3cnc4c(N(C)C)ncnc43)O[C@@H]2CO)cc1 [Puromycin]
one replicate
Settings | fitness
B. subtilis 168 [1], first compound 0.0039 µg/mL, partner 0.39 µg/mL | 0.956
B. subtilis 168 [1], first compound 0.0039 µg/mL, partner 0.78 µg/mL | 0.946
B. subtilis 168 [1], first compound 0.0039 µg/mL, partner 1.56 µg/mL | ≥ 1
B. subtilis 168 [1], first compound 0.0078 µg/mL, partner 0.39 µg/mL | 0.853
B. subtilis 168 [1], first compound 0.0078 µg/mL, partner 0.78 µg/mL | 0.876
B. subtilis 168 [1], first compound 0.0078 µg/mL, partner 1.56 µg/mL | 0.92
B. subtilis 168 [1], first compound 0.0156 µg/mL, partner 0.39 µg/mL | 0.826
B. subtilis 168 [1], first compound 0.0156 µg/mL, partner 0.78 µg/mL | 0.907
B. subtilis 168 [1], first compound 0.0156 µg/mL, partner 1.56 µg/mL | 0.894
S. aureus DSM 20231 [2], first compound 0.0312 µg/mL, partner 3.12 µg/mL | 0.487
S. aureus DSM 20231 [2], first compound 0.0312 µg/mL, partner 6.24 µg/mL | 0.14
S. aureus DSM 20231 [2], first compound 0.0625 µg/mL, partner 3.12 µg/mL | 0.212
S. aureus DSM 20231 [2], first compound 0.0625 µg/mL, partner 6.24 µg/mL | 0.0867
S. aureus DSM 20231 [2], first compound 0.125 µg/mL, partner 3.12 µg/mL | 0.0522
S. aureus DSM 20231 [2], first compound 0.125 µg/mL, partner 6.24 µg/mL | 0.0492
S. pneumoniae D39V [4], first compound 0.015 µg/mL, partner 1 µg/mL | 0.746
S. pneumoniae D39V [4], first compound 0.015 µg/mL, partner 2 µg/mL | 0.84
S. pneumoniae D39V [4], first compound 0.015 µg/mL, partner 4 µg/mL | 0.583
S. pneumoniae D39V [4], first compound 0.03 µg/mL, partner 1 µg/mL | 0.591
S. pneumoniae D39V [4], first compound 0.03 µg/mL, partner 2 µg/mL | 0.625
S. pneumoniae D39V [4], first compound 0.03 µg/mL, partner 4 µg/mL | 0.218
S. pneumoniae D39V [4], first compound 0.06 µg/mL, partner 1 µg/mL | 0.177
S. pneumoniae D39V [4], first compound 0.06 µg/mL, partner 2 µg/mL | 0.102
S. pneumoniae D39V [4], first compound 0.06 µg/mL, partner 4 µg/mL | 0.114

Settings | fitness
B. subtilis 168 [1], first compound 0.0625 µg/mL, partner 0.39 µg/mL | 0.534
B. subtilis 168 [1], first compound 0.0625 µg/mL, partner 0.78 µg/mL | 0.52
B. subtilis 168 [1], first compound 0.0625 µg/mL, partner 1.56 µg/mL | 0.564
B. subtilis 168 [1], first compound 0.125 µg/mL, partner 0.39 µg/mL | 0.378
B. subtilis 168 [1], first compound 0.125 µg/mL, partner 0.78 µg/mL | 0.355
B. subtilis 168 [1], first compound 0.125 µg/mL, partner 1.56 µg/mL | 0.366
B. subtilis 168 [1], first compound 0.25 µg/mL, partner 0.39 µg/mL | 0.347
B. subtilis 168 [1], first compound 0.25 µg/mL, partner 0.78 µg/mL | 0.335
B. subtilis 168 [1], first compound 0.25 µg/mL, partner 1.56 µg/mL | 0.344
S. aureus DSM 20231 [2], first compound 0.0625 µg/mL, partner 1.56 µg/mL | 0.179
S. aureus DSM 20231 [2], first compound 0.125 µg/mL, partner 0.39 µg/mL | 0.0343
S. aureus DSM 20231 [2], first compound 0.125 µg/mL, partner 0.78 µg/mL | 0.0367
S. aureus DSM 20231 [2], first compound 0.125 µg/mL, partner 1.56 µg/mL | 0.0565
S. aureus Newman [3], first compound 0.0312 µg/mL, partner 0.39 µg/mL | 0.741
S. aureus Newman [3], first compound 0.0312 µg/mL, partner 0.78 µg/mL | 0.717
S. aureus Newman [3], first compound 0.0312 µg/mL, partner 1.56 µg/mL | 0.713
S. aureus Newman [3], first compound 0.0625 µg/mL, partner 0.39 µg/mL | 0.395
S. aureus Newman [3], first compound 0.0625 µg/mL, partner 0.78 µg/mL | 0.412
S. aureus Newman [3], first compound 0.0625 µg/mL, partner 1.56 µg/mL | 0.326
S. aureus Newman [3], first compound 0.125 µg/mL, partner 0.39 µg/mL | 0.101
S. aureus Newman [3], first compound 0.125 µg/mL, partner 0.78 µg/mL | 0.115
S. aureus Newman [3], first compound 0.125 µg/mL, partner 1.56 µg/mL | 0.13
S. pneumoniae D39V [4], first compound 0.0125 µg/mL, partner 1 µg/mL | 0.766
S. pneumoniae D39V [4], first compound 0.0125 µg/mL, partner 2 µg/mL | 0.712
S. pneumoniae D39V [4], first compound 0.0125 µg/mL, partner 4 µg/mL | 0.473
S. pneumoniae D39V [4], first compound 0.025 µg/mL, partner 1 µg/mL | 0.533
S. pneumoniae D39V [4], first compound 0.025 µg/mL, partner 2 µg/mL | 0.475
S. pneumoniae D39V [4], first compound 0.025 µg/mL, partner 4 µg/mL | 0.33
S. pneumoniae D39V [4], first compound 0.05 µg/mL, partner 1 µg/mL | 0.261
S. pneumoniae D39V [4], first compound 0.05 µg/mL, partner 2 µg/mL | 0.192
S. pneumoniae D39V [4], first compound 0.05 µg/mL, partner 4 µg/mL | 0.11

Settings | Bliss interaction score
B. subtilis 168 [5] | 0.0463
S. aureus DSM 20231 [6] | -0.0327
S. aureus Newman [7] | -0.0646
S. pneumoniae D39V [8] | -0.123
